Assay results from PubChem BioAssay (NCI).
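Cells were grown in 96-well plates and exposed to each compound for 48 hours at five concentrations; endpoints were interpolated linearly between bracketing concentrations, or set to the highest concentration if not reached. Abbreviation: GI50, concentration required for 50% inhibition of growth. TGI: total growth inhibition.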

Columns and labels:
Assay in all cases: NCI anticancer screen, dose series, 48 h
[1] = tested on: SW-620 colon
[2] = tested on: A549 NSCLC
[3] = tested on: BT-549 breast
[4] = tested on: CAKI-1 renal
[5] = tested on: NCI/ADR-RES ovarian
[6] = tested on: HL-60(TB) leukemia
[7] = tested on: IGROV1 ovarian
[8] = tested on: SR leukemia
[9] = tested on: UO-31 renal
[10] = tested on: DU-145 prostate
[11] = tested on: A498 renal
[12] = tested on: SF-268 CNS
[13] = tested on: UACC-62 melanoma
[14] = tested on: CCRF-CEM leukemia
[15] = tested on: HCT-116 colon
[16] = tested on: HOP-92 NSCLC
[17] = tested on: SNB-19 CNS
[18] = tested on: SK-OV-3 ovarian
[19] = tested on: LOX IMVI melanoma
[20] = tested on: HCC-2998 colon
[21] = tested on: HOP-62 NSCLC
[22] = tested on: K-562 leukemia
[23] = tested on: SK-MEL-2 melanoma
[24] = tested on: UACC-257 melanoma
[25] = tested on: ACHN renal
[26] = tested on: MDA-MB-435
[27] = tested on: TK-10 renal
[28] = tested on: SK-MEL-28 melanoma
[29] = tested on: SK-MEL-5 melanoma
[30] = tested on: SF-539 CNS
[31] = tested on: MOLT-4 leukemia
[32] = tested on: HT29 colon
[33] = tested on: COLO 205 colon
[34] = tested on: M14 melanoma
[35] = tested on: PC-3 prostate
[36] = tested on: NCI-H226 lung
[37] = tested on: RPMI-8226 leukemia
[38] = tested on: SN12C renal
[39] = tested on: T-47D breast
[40] = tested on: 786-0 renal
[41] = tested on: HS 578T breast
[42] = tested on: KM12 colon
[43] = tested on: OVCAR-5 ovarian
[44] = tested on: U251 CNS
[45] = tested on: OVCAR-3 ovarian
[46] = tested on: OVCAR-4 ovarian
[47] = tested on: MCF7 breast
[48] = tested on: SF-295 CNS
[49] = tested on: MALME-3M melanoma
[50] = tested on: SNB-75 CNS
[51] = tested on: HCT-15 colon
[52] = tested on: NCI-H23 lung
[53] = tested on: NCI-H522 lung
[54] = tested on: RXF 393 renal
[55] = tested on: OVCAR-8 ovarian
[56] = tested on: NCI-H460 lung
[57] = tested on: MDA-MB-231 breast

With `CCN(CC)CCN(Cc1ccc(F)cc1)c1ccc(CO)c(Cl)c1` the GI50 [1] was 31.5 µM, the TGI [1] was greater than 100 µM and the GI50 [2] was 2.42 µM. The TGI [2] was 12.8 µM, the GI50 [3] was greater than 89.6 µM and the TGI [3] was greater than 100 µM. The GI50 [4] was 1.85 µM, the TGI [4] was 17.3 µM and the GI50 [5] was 9.64 µM. For the same molecule, the TGI [5] was 50.2 µM, the GI50 [6] was 23.1 µM and the TGI [6] was greater than 58.5 µM. For the same molecule, the GI50 [7] was 0.832 µM, the TGI [7] was 3.61 µM and the GI50 [8] was 23.5 µM. It also gave a TGI [8] of 67.9 µM, a GI50 [9] of 19.5 µM and a TGI [9] of 95.1 µM. The GI50 [10] was 9.97 µM, the TGI [10] was greater than 73.8 µM and the GI50 [11] was 1.55 µM. It also gave a TGI [11] of 3.18 µM, a GI50 [12] of 76.5 µM and a TGI [12] greater than 100 µM. It also gave a GI50 [13] of 6.07 µM, a TGI [13] of 20.8 µM and a GI50 [14] of 61.7 µM. The TGI [14] was greater than 100 µM, the GI50 [15] was 3.55 µM and the TGI [15] was greater than 50.1 µM. For the same molecule, the GI50 [16] was 2.66 µM, the TGI [16] was 19.3 µM and the GI50 [17] was greater than 100 µM. It also gave a TGI [17] greater than 100 µM, a GI50 [18] of 2.96 µM and a TGI [18] of 13.6 µM. It also gave a GI50 [19] of 21.1 µM, a TGI [19] of 52.5 µM and a GI50 [20] of 3.09 µM. It also gave a TGI [20] of 12.8 µM, a GI50 [21] of 9.84 µM and a TGI [21] of 63.3 µM. It also gave a GI50 [22] of 10.2 µM, a TGI [22] of 41.5 µM and a GI50 [23] of 21.2 µM. For the same molecule, the TGI [23] was 44.4 µM, the GI50 [24] was 12 µM and the TGI [24] was 27.7 µM. It also gave a GI50 [25] of 38.2 µM, a TGI [25] greater than 100 µM and a GI50 [26] of 23.5 µM. The TGI [26] was 74.7 µM, the GI50 [27] was 4.86 µM and the TGI [27] was 22.2 µM. The GI50 [28] was 17.2 µM, the TGI [28] was 32.9 µM and the GI50 [29] was 16.3 µM. For the same molecule, the TGI [29] was 30.1 µM, the GI50 [30] was 48.1 µM and the TGI [30] was greater than 100 µM. For the same molecule, the GI50 [31] was 40.1 µM, the TGI [31] was greater than 100 µM and the GI50 [32] was 18.6 µM. The TGI [32] was 69.4 µM, the GI50 [33] was 2.2 µM and the TGI [33] was 5.54 µM. The GI50 [34] was 17.2 µM, the TGI [34] was 35.2 µM and the GI50 [35] was 13.2 µM. It also gave a TGI [35] greater than 92.3 µM, a GI50 [36] of 0.235 µM and a TGI [36] of 0.713 µM. For the same molecule, the GI50 [37] was 23.8 µM, the TGI [37] was 75.3 µM and the GI50 [38] was 27.7 µM. It also gave a TGI [38] greater than 100 µM, a GI50 [39] of 7.05 µM and a TGI [39] greater than 62.6 µM. The GI50 [40] was 30.2 µM, the TGI [40] was greater than 100 µM and the GI50 [41] was 48.3 µM. For the same molecule, the TGI [41] was greater than 100 µM, the GI50 [42] was 18.8 µM and the TGI [42] was 75.9 µM. It also gave a GI50 [43] of 3.25 µM, a TGI [43] of 12.4 µM and a GI50 [44] of 22.8 µM. It also gave a TGI [44] greater than 100 µM, a GI50 [45] of 14 µM and a TGI [45] of 35.9 µM. The GI50 [46] was 4.6 µM, the TGI [46] was 35.2 µM and the GI50 [47] was 4.55 µM. It also gave a TGI [47] of 85.5 µM, a GI50 [48] of 15.1 µM and a TGI [48] of 49.9 µM. It also gave a GI50 [49] of 19.5 µM, a TGI [49] of 37.3 µM and a GI50 [50] of 12.2 µM. The TGI [50] was greater than 94.8 µM, the GI50 [51] was 12.7 µM and the TGI [51] was greater than 100 µM. It also gave a GI50 [52] of 35.4 µM, a TGI [52] greater than 100 µM and a GI50 [53] of 27.9 µM. For the same molecule, the TGI [53] was 68.2 µM, the GI50 [54] was 31.2 µM and the TGI [54] was greater than 69.3 µM. It also gave a GI50 [55] of 5.37 µM, a TGI [55] of 75.4 µM and a GI50 [56] of 1.17 µM. The TGI [56] was 3.97 µM, the GI50 [57] was 12.2 µM and the TGI [57] was 54.2 µM.
